The target in assay [1] is human GABAA α5β2γ1 receptor (Homo sapiens (Human), UniProt P31644+Q8N1C3). In words: Radioligand binding assay for γ1-containing GABAA subtypes, [3H]RO7239181 competition (α5β2γ1). The method, then: (§1) The affinity of compounds at GABAA γ1 subunit-containing receptors was measured by competition for [^3H]RO7239181 (67.3 Ci/mmol; Roche) binding to membranes from HEK293F cells (ThermoFisher R79007) expressing human (transiently transfected) receptors of composition α5β2γ1, α2β2γ1, α1β2γ1.
(§2) Harvested pellets from HEK293F cells expressing the different GABAA receptor subtypes were resuspended in Mannitol Buffer pH 7.2-7.4 (Mannitol 0.29 M, Triethylamine 10 mM, Acetic acid 10 mM, EDTA 1 mM plus protease inhibitors (20 tablets Complete, Roche Diagnostics Cat. No. 05 056 489 001 per liter)), washed two times and then resuspended at 1:10 to 1:15 dilution in the same buffer. Cell disruption was performed by stirring the suspension in a Parr vessel #4637 at 435 psi for 15 minutes, and then the suspensions were centrifuged at 1000×g for 15 minutes at 4° C. (Beckman Avanti J-HC; rotor JS-4.2). The supernatant (S1) was transferred in a 2 l Schott flask and the pellet (P1) was resuspended with Mannitol Buffer up to 175 ml. The resuspended pellet was transferred into a 250 ml Corning centrifugal beaker and centrifuged at 1500×g for 10 minutes at 4° C. (Beckman Avanti J-HC; rotor JS-4.2). The supernatant (S1) was then transferred in the 2 l Schott flask and the pellet was discarded. The supernatants (S1) were centrifuged in 500 ml Beckman polypropylene centrifugal beaker at 15′000×g for 30 minutes at 4° C. (Beckman Avanti J-20 XP; rotor JLA-10.500). The pellet (P2) was resuspended with Mannitol Buffer 1:1 and frozen at −80° C. The supernatant (S2) was centrifuged in 100 ml Beckman polypropylene centrifugal tubes at 48000×g for 50 minutes at 4° C. (Beckman Avanti J-20 XP; rotor JA-18). The supernatant (S3) was discarded and the pellet (P3) was resuspended with 1:1 Mannitol Buffer. The P2 and P3 protein concentration was determined with the BIORAD Standard assay method with bovine serum albumin as standard and measured on the NANO-Drop 1000. The membrane suspension was aliquots (500 μl per tube) and stored at −80° C. until required.
(§3) Membrane homogenates were resuspended and polytronised (Polytron PT1200E Kinematica AG) in Potassium Phosphate 10 mM, KCl 100 mM binding buffer at pH 7.4 to a final assay concentration determined with a previous experiment.
(§4) Assays were incubated to equilibrium for 1 hour at 4° C. and then, membranes were filtered onto unifilter (96-well white microplate with bonded GF/C filters preincubated 20-50 minutes in 0.3% Polyethylenimine) with a Filtermate 196 harvester (Packard BioScience) and washed 4 times with cold Potassium Phosphate 10 mM pH 7.4, KCl 100 mM binding buffer. After anhydrousing, filter-retained radioactivity was detected by liquid scintillation counting. Ki values were calculated using Excel-Fit (Microsoft) and are the means of two determinations.

Assay [2] concerns the target human GABAA α1β3γ2 receptor (Homo sapiens (Human), UniProt P14867+P18507). Nature of the assay: Radioligand binding assay for γ2-containing GABAA subtypes, [3H]Flumazenil competition (α1β3γ2). Particulars: for γ2/γ1 Selectivity Ratio: Ki α1β3γ2 (nM)/Ki α2β2γ1 (nM); for LogSel: Log[Ki α1β3γ2 (nM)/Ki α2β2γ1 (nM)]. The method, then: The affinity of compounds at GABAA γ2 subunit-containing receptors was measured by competition for [^3H]Flumazenil (81.1 Ci/mmol; Roche) binding to HEK293F cells expressing human (transiently transfected) receptors of composition α1β3γ2.
Harvested pellets from HEK293F cells expressing the different GABAA γ2 receptor subtypes were resuspended in Mannitol Buffer pH 7.2-7.4 and processed as described above for the cells expressing the GABAA γ1 subunit-containing receptors.
Assays were incubated to equilibrium for 1 hour at 4° C. and harvested onto GF/C uni-filters (Packard) by filtration using a Packard harvester and washing with ice-cold wash buffer (50 mM Tris; pH 7.5). After anhydrousing, filter-retained radioactivity was detected by liquid scintillation counting. Ki values were calculated using Excel-Fit (Microsoft) and are the means of two determinations.

Assay [3] concerns the target human GABAA α2β2γ1 receptor (Homo sapiens (Human), UniProt P47869+Q8N1C3). Nature of the assay: Radioligand binding assay for γ1-containing GABAA subtypes, [3H]RO7239181 competition (α2β2γ1). As to the method:
as §1, §2, §3, §4

In assay [4] the target is α2β2γ1 GABAA receptor subtype (Homo sapiens (Human), UniProt P47869+Q8N1C3). Nature of the assay: Two-electrode voltage clamp electrophysiology in Xenopus oocytes expressing GABAA receptors (modulation of GABA EC20 current). Format: cell-based. Particulars: for Efficacy (GABA)%: % modulation of GABA EC20 = 100*(Fold increase-1), α2β2γ1 oocytes, compound at approx. 30-fold Ki; for Fold increase h-GABA-A α2β2γ1 oocyte @ 30-fold Ki: Xenopus oocytes expressing α2β2γ1, compound at approx. 30-fold its Ki α2β2γ1, GABA EC20 current. As to the method:
Xenopus laevis oocytes at maturation stages V-VI were used for the expression of cloned mRNA encoding GABAA receptor subunits. Oocytes ready for RNA micro-injection were bought from Ecocyte, Castrop-Rauxel, Germany and stored in modified Barth's medium (composition in mM: NaCl 88, KCl 1, NaHCO3 2.4, HEPES 10, MgSO4 0.82, CaNO3 0.33, CaCl2 0.33, pH=7.5) at 20° C. until the experiment.
Oocytes were plated in 96-well plates for microinjection using the Roboinject automated instrument (MultiChannelSystems, Reutlingen, Germany). Approximately 50 nL of an aqueous solution containing the RNA transcripts for the subunits of the desired GABAA receptor subtype was injected into each oocyte. […] Oocytes were kept in modified Barth's medium (composition in mM: NaCl 88, KCl 1, NaHCO3 […], HEPES 10, MgSO4 0.82, CaNO3 0.33, CaCl2 0.33, pH=7.5) at 20° C. until the experiment.
Electrophysiological experiments were performed using the Roboocyte instrument (MultiChannelSystems, Reutlingen, Germany) on days 3 to 5 after the micro-injection of mRNA. During the experiment the oocytes were constantly superfused by a solution containing (in mM) NaCl 90, KCl 1, HEPES 5, MgCl2 1, CaCl2 1 (pH 7.4). Oocytes were impaled by two glass microelectrodes (resistance: 0.5-0.8 MΩ) which were filled with a solution containing KCl 1M+K-acetate 1.5 M and voltage-clamped to −80 mV. The recordings were performed at room temperature using the Roboocyte two-electrode voltage clamp system (Multichannelsystem). After an initial equilibration period of 1.5 min GABA was added for 1.5 min at a concentration evoking approximately 20% of a maximal current response (EC20). After another rest interval of 2.5 min GABA was again added evoking a response of similar amplitude and shape. […] Current traces were recorded at a digitization rate of 10 Hz during and shortly before and after the GABA application.
Each compound and concentration was tested on at least 3 oocytes. Different oocytes were used for different compound concentrations.
For the analysis, the digitized current traces of the first and second GABA response were superimposed and, if necessary, rescaled to equal maximal amplitudes. The ratio between the two responses during the time interval of test compound application was calculated point by point. The extremum of the resulting “ratio trace” was taken as the efficacy (“Fold increase”) of the compound expressed as “% modulation of GABA EC20” (100*(Fold increase-1)).
Background: Two-electrode voltage clamp is typically applied to oocytes expressing channels or transporters.

Setting [5] is: Ki h-GABAA α2β2γ1, [3H]RO7239181 competition binding, human GABAA α2β2γ1.
[6] abbreviates: Ki h-GABAA α2β2γ1, displacement of [3H]RO7239181, membranes of HEK293F cells expressing human receptors, means of two determinations.

Like-named read-outs stand apart in the source and are kept apart here.

As usually defined, the Ki is a dissociation constant, usually derived from enzyme kinetics or from competition with a known ligand. Consider `COCc1cn2c(n1)CN=C(c1c(F)cccc1F)c1c-2ccc(Cl)c1Cl` [Example 5, 7,8-dichloro-6-(2,6-difluorophenyl)-2-(methoxymethyl)-4H-benzo[f]imidazo[1,2-a][1,4]diazepine], for which, in assay [1], the Ki stood at 1.2 nM. Also, in assay [2], affinity was put at a Ki of 307 nM, the “γ2/γ1 Selectivity Ratio” value came to 31.9 and the LogSel came out at 1.50. The molecule further displayed an inhibitory constant (Ki) in assay [3] (setting [5]) of 9.6 nM. For the same molecule, in assay [3] (setting [6]), the Ki turned out to be 9.6 nM. In addition, in assay [4], the “Efficacy (GABA)%” value is reported as 78% and the “Fold increase h-GABA-A α2β2γ1 oocyte @ 30-fold Ki” value was found to be 1.78.

Turning to `CNC(=O)c1nc2n(n1)-c1ccc(Cl)c(Cl)c1C(c1c(F)cccc1F)=NC2` [Example 6, 7,8-dichloro-6-(2,6-difluorophenyl)-N-methyl-4H-[1,2,4]triazolo[1,5-a][1,4]benzodiazepine-2-carboxamide], the Ki in assay [1] amounted to 0.75 nM. In assay [2], the affinity, expressed as Ki, was 1440 nM; the “γ2/γ1 Selectivity Ratio” value is listed as 260.9; the LogSel is 2.42. Further, the Ki in assay [3] (setting [5]) was 5.5 nM. In assay [3] (setting [6]), this molecule yielded a Ki of 5.5 nM. In assay [4], the “Efficacy (GABA)%” value came to 101% and the “Fold increase h-GABA-A α2β2γ1 oocyte @ 30-fold Ki” value is recorded as 2.01.

With `[2H]C([2H])([2H])NC(=O)c1nc2n(n1)-c1ccc(Cl)c(Cl)c1C(c1c(F)cccc1F)=NC2` [Example 7, 7,8-dichloro-6-(2,6-difluorophenyl)-N-(trideuteriomethyl)-4H-[1,2,4]triazolo[1,5-a][1,4]benzodiazepine-2-carboxamide], the Ki was determined as 0.75 nM in assay [1], 455 nM in assay [2], 6 nM in assay [3] (setting [5]) and 6 nM in assay [3] (setting [6]). Also, the “γ2/γ1 Selectivity Ratio” value in assay [2] was determined as 75.6. This molecule had a LogSel in assay [2] of 1.88. Moreover, the “Efficacy (GABA)%” value in assay [4] stood at 68%. Further, the “Fold increase h-GABA-A α2β2γ1 oocyte @ 30-fold Ki” value in assay [4] is reported as 1.68.

As for `O=C(c1nc2n(n1)-c1ccc(Cl)c(Cl)c1C(c1c(F)cccc1F)=NC2)N1CCC1` [Example 8, azetidin-1-yl-[7,8-dichloro-6-(2,6-difluorophenyl)-4H-[1,2,4]triazolo[1,5-a][1,4]benzodiazepin-2-yl]methanone], the Ki in assay [1] is 1.08 nM; in assay [2] it was 368 nM; in assay [3] (setting [5]), 8.2 nM; in assay [3] (setting [6]), 8.2 nM. Further, in assay [2], the “γ2/γ1 Selectivity Ratio” value is listed as 44.7. For the same molecule, in assay [2], the LogSel is 1.65. In addition, in assay [4], the “Efficacy (GABA)%” value is 98%. In addition, the “Fold increase h-GABA-A α2β2γ1 oocyte @ 30-fold Ki” value in assay [4] is 1.98.

As for `CN(C)C(=O)c1nc2n(n1)-c1ccc(Cl)c(Cl)c1C(c1c(F)cccc1F)=NC2` [Example 9, 7,8-dichloro-6-(2,6-difluorophenyl)-N,N-dimethyl-4H-[1,2,4]triazolo[1,5-a][1,4]benzodiazepine-2-carboxamide], the Ki in assay [1] came to 1.15 nM; in assay [2] it was 989 nM; in assay [2] (read-out: Ki h-GABAA α1β3γ2, Table 3, reference compounds) it was 989 nM; in assay [3] (Ki h-GABAA α2β2γ1, Table 3, reference compounds), 5.5 nM; in assay [3] (setting [5]), 5.5 nM; in assay [3] (setting [6]), 5.5 nM. For the same molecule, the “γ2/γ1 Selectivity Ratio” value in assay [2] and in assay [2] (Table 3) was 179.8 in each case. Moreover, the LogSel in assay [2] and in assay [2] (Table 3) was 2.25 in each case. Besides, the “Efficacy (GABA)%” value in assay [4] is given as 123%. In assay [4], the “Fold increase h-GABA-A α2β2γ1 oocyte @ 30-fold Ki” value was 2.23.

On to `O=C(NC1COC1)c1nc2n(n1)-c1ccc(Cl)c(Cl)c1C(c1c(F)cccc1F)=NC2` [Example 10, 7,8-dichloro-6-(2,6-difluorophenyl)-N-(oxetan-3-yl)-4H-[1,2,4]triazolo[1,5-a][1,4]benzodiazepine-2-carboxamide], for which, in assay [1], affinity was put at a Ki of 0.79 nM. In assay [2], the affinity corresponds to a Ki of 445 nM, the “γ2/γ1 Selectivity Ratio” value amounted to 145.5 and the LogSel stood at 2.16. The molecule also came in with a Ki in assay [3] (setting [5]) of 3.1 nM. Also, in assay [3] (setting [6]), the Ki worked out at 3.06 nM. In assay [4], the “Efficacy (GABA)%” value worked out at 70% and the “Fold increase h-GABA-A α2β2γ1 oocyte @ 30-fold Ki” value came out at 1.70.

For the molecule `COC1CN(C(=O)c2nc3n(n2)-c2ccc(Cl)c(Cl)c2C(c2c(F)cccc2F)=NC3)C1` [Example 11, [7,8-dichloro-6-(2,6-difluorophenyl)-4H-[1,2,4]triazolo[1,5-a][1,4]benzodiazepin-2-yl]-(3-methoxyazetidin-1-yl)methanone], the Ki in assay [1] stood at 0.84 nM; in assay [2] it was 451 nM; in assay [3] (setting [5]), 2.7 nM; in assay [3] (setting [6]), 2.71 nM. Moreover, the “γ2/γ1 Selectivity Ratio” value in assay [2] is reported as 166.3. Moreover, the LogSel in assay [2] is 2.22. In addition, the “Efficacy (GABA)%” value in assay [4] is 62%. In addition, the “Fold increase h-GABA-A α2β2γ1 oocyte @ 30-fold Ki” value in assay [4] is reported as 1.62.

In the case of `CNC(=O)c1cn2c(n1)CN=C(c1ncccc1F)c1c-2ccc(Cl)c1Cl` [Example 12, 7,8-dichloro-6-(3-fluoro-2-pyridyl)-N-methyl-4H-imidazo[1,2-a][1,4]benzodiazepine-2-carboxamide], the inhibition constant (Ki) worked out at 9.3 nM in assay [1], 506 nM in assay [2], 36.7 nM in assay [3] (setting [5]) and 36.7 nM in assay [3] (setting [6]). In assay [2], the “γ2/γ1 Selectivity Ratio” value is 13.8. For the same molecule, in assay [2], the LogSel stood at 1.14. In assay [4], the “Efficacy (GABA)%” value was 125%. Besides, the “Fold increase h-GABA-A α2β2γ1 oocyte @ 30-fold Ki” value in assay [4] is recorded as 2.25.

For the origin of these results see patent US12365687B2 (Hoffmann-La Roche Inc., priority 2021, dated 2025).
